Like-named read-outs stand apart in the source and are kept apart here.
Assays:
FABP3/NT-proBNP = conditions: for median FABP3/NT-proBNP ratio: FABP3 in ng/ml, NT-proBNP in pg/mL, baseline median ratio 0.026
Text: (§1) A total of 100 patients with stable chronic HFrEF participating in a prospective registry at the heart failure outpatient clinic at the Medical University of Vienna, which has been imputed with all clinically relevant data, are included in the present study. The inclusion criteria of the registry are documented chronic HFrEF, an age of at least 18 years and stable heart failure related medical therapy in the last 3 months. Inclusion criteria for this study is the participation in the registry, and the absence of any exclusion criteria avoiding the prescription of SGLT-2 inhibitor (Dapagliflozin). Visits at the outpatient clinic are conducted at baseline (visit 0), at week 4 after SGLT-2 inhibitor therapy initiation (visit 1), after 3 month (visit 2), after 6 months (visit 3), and every 6 months thereafter.
(§2) Blood and urine samples are drawn from a peripheral vein and collected at baseline prior to administration of the SGLT-2 inhibitor and repeated at every regularly scheduled study-visit. Samples are used for (1.) routine laboratory analysis and (2.) biobank storage.
(§3) Blood for the biobank is immediately centrifuged and plasma samples are stored at-80° C. for future analysis. The plasma samples and urine samples are stored in the central “biobank” facility of the Department of Laboratory Medicine at the Medical University of Vienna.
(§4) FABP3 and additional cardiac biomarkers N-terminal B-type natriuretic peptide (NT-proBNP) and GDF-15 are measured in plasma using the Elecsys Systems (Roche Diagnostics, Mannheim, Germany).

FABP3 = conditions: for amount of FABP3 higher compared to baseline: 3 months (V2)
Text: as §1, §2, §3, §4

NT-proBNP = conditions: for median NT-proBNP concentration: baseline median 1396.30; for change of amount of NT-proBNP before and after initiation: before and after SGLT2i initiation
Text: as §1, §2, §3, §4

FABP3/GDF-15 = conditions: for median FABP3/GDF-15 ratio: FABP3 in ng/ml, GDF-15 in pg/mL, baseline median ratio 0.017
Text: as §1, §2, §3, §4

GDF-15 = conditions: baseline median 2439.34
Text: as §1, §2, §3, §4

[1] = after 6 months (V3), vs. baseline
[2] = V1: week 4 after SGLT2i therapy initiation

CCOc1ccc(Cc2cc([C@@H]3O[C@H](CO)[C@@H](O)[C@H](O)[C@H]3O)ccc2Cl)cc1 [SGLT2i, Dapagliflozin]
median FABP3/NT-proBNP ratio (FABP3/NT-proBNP; V1: week 4): 0.032 | median FABP3/NT-proBNP ratio (FABP3/NT-proBNP; V2: 3 months): 0.039 | median FABP3/NT-proBNP ratio (FABP3/NT-proBNP; V3: 6 months): 0.046 | median FABP3/NT-proBNP ratio (FABP3/NT-proBNP; V4: 12 months): 0.033 | peak of relative increase of FABP3/NT-proBNP ratio (FABP3/NT-proBNP; [1]): 77% | change of FABP3/NT-proBNP ratio after initiation (FABP3/NT-proBNP; over time after SGLT2i initiation): increases over time | relative increase of FABP3 concentration alone (FABP3; [1]): 19% | change in plasma concentration of FABP3 after therapy initiation (FABP3; chronic HFrEF patients): increase in plasma concentration of FABP3 | median FABP3 plasma concentration (FABP3; chronic HFrEF patients, V1: week 4 after SGLT2i therapy initiation, baseline median 37.82): 40.86 ng/mL | median FABP3 plasma concentration (FABP3; chronic HFrEF patients, V2: 3 months, baseline median 37.82): 45.14 ng/mL | median FABP3 plasma concentration (FABP3; chronic HFrEF patients, V3: 6 months, baseline median 37.82): 44.36 ng/mL | FABP3 plasma concentration (FABP3; chronic HFrEF patients, V4: 12 months, baseline median 37.82): 44.47 ng/mL | amount of FABP3 higher compared to baseline (FABP3; patient subgroup with high baseline FABP3 (above 37.8 ng/ml)): about 14% | amount of FABP3 higher compared to baseline (FABP3; patient subgroup with low baseline FABP3 (below 37.8 ng/ml)): about 27% | median FABP3 concentration (FABP3; patients with high baseline FABP3 (above 37.8 ng/ml), V1: week 4, baseline median 47.97): 53.56 ng/mL | median FABP3 concentration (FABP3; patients with high baseline FABP3 (above 37.8 ng/ml), V2: 3 months, baseline median 47.97): 54.73 ng/mL | median FABP3 concentration (FABP3; patients with high baseline FABP3 (above 37.8 ng/ml), V3: 6 months, baseline median 47.97): 54.51 ng/mL | FABP3 concentration (FABP3; patients with high baseline FABP3 (above 37.8 ng/ml), V4: 12 months, baseline median 47.97): 53.23 ng/mL | median FABP3 concentration (FABP3; patients with low baseline FABP3 (below 37.8 ng/mL), V1: week 4, baseline median 29.05): 31.41 ng/mL | median FABP3 concentration (FABP3; patients with low baseline FABP3 (below 37.8 ng/mL), V2: 3 months, baseline median 29.05): 38.86 ng/mL | median FABP3 concentration (FABP3; patients with low baseline FABP3 (below 37.8 ng/mL), V3: 6 months, baseline median 29.05): 36.41 ng/mL | FABP3 concentration (FABP3; patients with low baseline FABP3 (below 37.8 ng/mL), V4: 12 months, baseline median 29.05): 36.76 ng/mL | time for which the FABP3 increase is apparent (FABP3; under SGLTi treatment): ≥ 12 months | median NT-proBNP concentration (NT-proBNP; [2]): 1115.68 pg/mL | median NT-proBNP concentration (NT-proBNP; V2: 3 months): 1191.95 pg/mL | median NT-proBNP concentration (NT-proBNP; V3: 6 months): 889.21 pg/mL | median NT-proBNP concentration (NT-proBNP; V4: 12 months): 1172.84 pg/mL | change of amount of NT-proBNP before and after initiation (NT-proBNP): does not correlate | change of amount of NT-proBNP before and after initiation (NT-proBNP; listed as SGLTi): does not significantly change | median FABP3/GDF-15 ratio (FABP3/GDF-15; V1: week 4): 0.016 | median FABP3/GDF-15 ratio (FABP3/GDF-15; V2: 3 months): 0.016 | median FABP3/GDF-15 ratio (FABP3/GDF-15; V3: 6 months): 0.016 | median FABP3/GDF-15 ratio (FABP3/GDF-15; V4: 12 months): 0.019 | change of FABP3/GDF-15 ratio after initiation (FABP3/GDF-15; after SGLT2i initiation): remains stable | peak of relative increase of FABP3/GDF-15 ratio (FABP3/GDF-15; at 12 months (V4), vs. baseline): 12% | median GDF-15 concentration (GDF-15; [2]): 2657.16 pg/mL | median GDF-15 concentration (GDF-15; V2: 3 months): 3036.18 pg/mL | median GDF-15 concentration (GDF-15; V3: 6 months): 2414.01 pg/mL | median GDF-15 concentration (GDF-15; V4: 12 months): 2039.85 pg/mL

Reference: patent US20260235623A1, “EFFECT INDUCED BY A SODIUM-GLUCOSE COTRANSPORTER INHIBITOR (SGLTi) IN A SUBJECT SUFFERING FROM A CARDIOVASCULAR DISEASE” (Roche Diagnostics Operations, Inc., priority 2023, published 2026)
